In US20130252890A1, “6,7-DIHYDRO-5H-BENZO[7]ANNULENE DERIVATIVES, PROCESS FOR PREPARATION THEREOF, PHARMACEUTICAL PREPARATIONS COMPRISING THEM, AND THE USE THEREOF FOR PRODUCTION OF MEDICAMENTS” (BAYER INTELLECTUAL PROPERTY GMBH, priority 2010, published 2013):

Biological target: T1, oestrogen receptor (ER) (Homo sapiens, UniProt P03372)
T1 construct: These MVLN cells express, along with the functional oestrogen receptor (ER), a reporter construct; endogenous in cells; host or cells: MVLN cells (MCF7 derivative carrying a luciferase reporter construct)
T1 sequence (P03372 1-595): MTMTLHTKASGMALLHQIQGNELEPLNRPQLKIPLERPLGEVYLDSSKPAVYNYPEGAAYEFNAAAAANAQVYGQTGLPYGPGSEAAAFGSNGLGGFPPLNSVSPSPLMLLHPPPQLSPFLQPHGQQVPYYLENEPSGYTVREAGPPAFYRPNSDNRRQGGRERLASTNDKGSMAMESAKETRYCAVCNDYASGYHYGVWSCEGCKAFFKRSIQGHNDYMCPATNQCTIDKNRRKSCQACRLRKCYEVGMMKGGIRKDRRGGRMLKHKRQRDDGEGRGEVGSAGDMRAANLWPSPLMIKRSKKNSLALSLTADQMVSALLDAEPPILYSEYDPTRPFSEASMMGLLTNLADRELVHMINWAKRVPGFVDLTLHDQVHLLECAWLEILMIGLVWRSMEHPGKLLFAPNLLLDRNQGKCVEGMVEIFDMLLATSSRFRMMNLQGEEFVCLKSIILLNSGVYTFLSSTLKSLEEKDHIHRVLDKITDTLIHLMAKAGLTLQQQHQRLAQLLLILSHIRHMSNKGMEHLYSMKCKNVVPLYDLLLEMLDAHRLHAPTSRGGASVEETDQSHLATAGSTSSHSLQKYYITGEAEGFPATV
Assay: Anti-oestrogenic action in MVLN cells (inhibition of estradiol-induced luciferase)
Assay type: cell-based
Conditions: inhibition of estradiol-induced luciferase signal, value of Ex. 44 is a mean value, read-out: Antioestrogenic action in vitro: MVLN transactivation antagonism IC50
Source text: The anti-oestrogenic action of the claimed pharmacological compounds was investigated in so-called MVLN cells in vitro. MVLN cells are derivatives of the hormone-responsive MCF7 breast cancer cells known by a person skilled in the art. These MVLN cells express, along with the functional oestrogen receptor (ER), a reporter construct, which under ER-activation expresses luciferase. Determination of the activity of the induced luciferase permits a direct conclusion on the oestrogen properties of substances. To investigate the anti-oestrogenic properties of the pharmacological compounds, they were investigated in the presence of oestrogen for their potential for inhibiting the luciferase signal induced by estradiol. The claimed pharmacological test substances were investigated in MVLN cells for their anti-oestrogenic potential, as described (see Table 2).

Compound | IC50 [µM]
CC(C)(O)CN(CCCCCCC1=C(c2cc(F)cc(F)c2)CCCc2cc(O)ccc21)CCCS(=O)(=O)CCCC(F)(F)C(F)(F)F [Example 13, 8-(3,5-Difluorophenyl)-9-{6-[(2-hydroxy-2-methylpropyl){3-[(4,4,5,5,5-pentafluoropentyl)sulphonyl]propyl}amino]hexyl}-6,7-dihydro-5H-benzo[7]annulen-3-ol] | 0.02
O=S(=O)(CCCN(CCCO)CCCCCCC1=C(c2ccc(F)cc2)CCCc2cc(O)ccc21)CCC(F)(F)F [Example 57, 8-(4-Fluorophenyl)-9-{6-[(3-hydroxypropyl){3-[(3,3,3-trifluoropropyl)sulphonyl]propyl}amino]hexyl}-6,7-dihydro-5H-benzo[7]annulen-3-ol] | 0.111
CN(CCCCCCC1=C(c2ccc(F)c(F)c2)CCCc2cc(O)ccc21)CCCS(=O)(=O)CCCC(F)(F)C(F)(F)F [Example 17, 8-(3,4-Difluorophenyl)-9-[6-(methyl{3-[(4,4,5,5,5-pentafluoropentyl)sulphonyl]propyl}amino)hexyl]-6,7-dihydro-5H-benzo[7]annulen-3-ol] | 0.046
O=S(=O)(CCCN(CCCCCCC1=C(c2ccc(F)cc2)CCCc2c1ccc(O)c2F)Cc1ccc(F)cc1)CCCC(F)(F)C(F)(F)F [Example 65, 4-Fluoro-9-{6-[(4-fluorobenzyl){3-[(4,4,5,5,5-pentafluoropentyl)sulphonyl]propyl}amino]hexyl}-8-(4-fluorophenyl)-6,7-dihydro-5H-benzo[7]annulen-3-ol] | 0.116
CC(C)(O)CN(CCCCCCC1=C(c2ccc(F)c(F)c2)CCCc2cc(O)ccc21)CCC[S+]([O-])CCC(F)(F)F (stereo not drawn) [Example 26, 8-(3,4-Difluorophenyl)-9-{6-[(2-hydroxy-2-methylpropyl){3-[(3,3,3-trifluoropropyl)sulphinyl]propyl}amino]hexyl}-6,7-dihydro-5H-benzo[7]annulen-3-ol] | 0.028
N#CCN(CCCCCCC1=C(c2ccc(F)cc2)CCCc2cc(O)ccc21)CCCS(=O)(=O)CCCCC(F)(F)F [Example 141, ({6-[8-(4-Fluorophenyl)-3-hydroxy-6,7-dihydro-5H-benzo[7]annulen-9-yl]hexyl}{3-[(5,5,5-trifluoropentyl)sulphonyl]propyl}amino)acetonitrile] | 0.021
CN(CCCCCCC1=C(c2ccc(F)cc2F)CCCc2cc(O)ccc21)CCCCS(=O)(=O)CCCC(F)(F)C(F)(F)F [Example 147, 8-(2,4-Difluorophenyl)-9-[6-(methyl{4-[(4,4,5,5,5-pentafluoropentyl)sulphonyl]butyl}amino)hexyl]-6,7-dihydro-5H-benzo[7]annulen-3-ol] | 0.032
CCN(CCCCCCC1=C(c2ccc(F)c(F)c2)CCCc2cc(O)ccc21)CCCS(=O)(=O)CCC(F)(F)F [Example 30, 8-(3,4-Difluorophenyl)-9-[6-(ethyl{3-[(3,3,3-trifluoropropyl)sulphonyl]propyl}amino)hexyl]-6,7-dihydro-5H-benzo[7]annulen-3-ol] | 0.088
CN(CCCCCCC1=C(c2ccc(F)cc2)CCCc2cc(O)c(F)cc21)CCCCCS(=O)(=O)CCC(F)(F)F [Example 107, 2-Fluoro-8-(4-fluorophenyl)-9-[6-(methyl{5-[(3,3,3-trifluoropropyl)sulphonyl]pentyl}amino)hexyl]-6,7-dihydro-5H-benzo[7]annulen-3-ol] | 0.123
CN(CCCCCC1=C(c2ccc(F)cc2)CCCc2cc(O)ccc21)CCCS(=O)(=O)CCCC(F)(F)C(F)(F)F [Example 127] | 0.069
CN(CCCCCCC1=C(c2cc(F)cc(F)c2)CCCc2cc(O)ccc21)CCCCS(=O)(=O)CCC(F)(F)C(F)(F)F [Example 69, 8-(3,5-Difluorophenyl)-9-[6-(methyl{4-[(3,3,4,4,4-pentafluorobutyl)sulphonyl]butyl}amino)hexyl]-6,7-dihydro-5H-benzo[7]annulen-3-ol] | 0.019
CC(C)(C)N(CCCCCCC1=C(c2ccc(F)cc2)CCCc2c1ccc(O)c2F)CCCS(=O)(=O)CCCC(F)(F)C(F)(F)F [Example 63, 9-[6-(tert-Butyl{3-[(4,4,5,5,5-pentafluoropentyl)sulphonyl]propyl}amino)hexyl]-4-fluoro-8-(4-fluorophenyl)-6,7-dihydro-5H-benzo[7]annulen-3-ol] | 0.095
O=S(=O)(CCCN(CCF)CCCCCCC1=C(c2ccc(F)cc2)CCCc2c1ccc(O)c2F)CCCC(F)(F)C(F)(F)F [Example 85, 4-Fluoro-9-{6-[(2-fluoroethyl){3-[(4,4,5,5,5-pentafluoropentyl)sulphonyl]propyl}amino]hexyl}-8-(4-fluorophenyl)-6,7-dihydro-5H-benzo[7]annulen-3-ol] | 0.051
O=S(=O)(CCCCN(CCO)CCCCCCC1=C(c2ccc(F)cc2)CCCc2cc(O)c(F)cc21)CCC(F)(C(F)(F)F)C(F)(F)F [Example 138, 2-Fluoro-8-(4-fluorophenyl)-9-{6-[(2-hydroxyethyl)(4-{[3,4,4,4-tetrafluoro-3-(trifluoromethyl)butyl]sulphonyl}butyl)amino]hexyl}-6,7-dihydro-5H-benzo[7]annulen-3-ol] | 0.021
O=S(=O)(CCCNCCCCCCC1=C(c2ccc(F)cc2)CCCc2cc(O)ccc21)CCCC(F)(F)C(F)(F)F [Example 113, 8-(4-Fluorophenyl)-9-[6-({3-[(4,4,5,5,5-pentafluoropentyl)sulphonyl]propyl}amino)hexyl]-6,7-dihydro-5H-benzo[7]annulen-3-ol] | 0.018
COCCN(CCCCCCC1=C(c2ccc(F)cc2)CCCc2c1ccc(O)c2F)CCCS(=O)(=O)CCCC(F)(F)C(F)(F)F [Example 40, 4-Fluoro-8-(4-fluorophenyl)-9-{6-[(2-methoxyethyl){3-[(4,4,5,5,5-pentafluoropentyl)sulphonyl]propyl}amino]hexyl}-6,7-dihydro-5H-benzo[7]annulen-3-ol] | 0.17

Now those with a lower IC50, led by results:

IC50 [µM] | Compound
0.016 | COCCN(CCCCCCC1=C(c2ccc(F)c(F)c2)CCCc2cc(O)ccc21)CCCS(=O)(=O)CCCC(F)(F)C(F)(F)F [Example 31, 8-(3,4-Difluorophenyl)-9-{6-[(2-methoxyethyl){3-[(4,4,5,5,5-pentafluoropentyl)sulphonyl]propyl}amino]hexyl}-6,7-dihydro-5H-benzo[7]annulen-3-ol]
0.015 | CN(CCCCCCC1=C(c2ccc(F)cc2)CCCc2cc(O)c(F)cc21)CCCS(=O)(=O)CCCC(F)(F)C(F)(F)F [Example 99, 2-Fluoro-8-(4-fluorophenyl)-9-[6-(methyl{3-[(4,4,5,5,5-pentafluoropentyl)sulphonyl]propyl}amino)hexyl]-6,7-dihydro-5H-benzo[7]annulen-3-ol]
0.012 | CN(CCCCCCC1=C(c2cc(F)cc(F)c2)CCCc2cc(O)ccc21)CCC[S+]([O-])CCCC(F)(F)C(F)(F)F (stereo not drawn) [Example 8, 8-(3,5-Difluorophenyl)-9-[6-(methyl{3-[(4,4,5,5,5-pentafluoropentyl)sulphinyl]propyl}amino)hexyl]-6,7-dihydro-5H-benzo[7]annulen-3-ol]
0.01 | CN(CCCCCCC1=C(c2ccc(F)cc2)CCCc2c1ccc(O)c2F)CCCC[S+]([O-])CCCC(F)(F)C(F)(F)F (stereo not drawn) [Example 35, 4-Fluoro-8-(4-fluorophenyl)-9-[6-(methyl{4-[(4,4,5,5,5-pentafluoropentyl)sulphinyl]butyl}amino)hexyl]-6,7-dihydro-5H-benzo[7]annulen-3-ol]
0.01 | CN(CCCCCCC1=C(c2ccc(F)cc2)CCCc2cc(O)c(F)cc21)CCCS(=O)(=O)CCCCC(F)(F)F [Example 102, 2-Fluoro-8-(4-fluorophenyl)-9-[6-(methyl{3-[(5,5,5-trifluoropentyl)sulphonyl]propyl}amino)hexyl]-6,7-dihydro-5H-benzo[7]annulen-3-ol]
0.01 | CC(C)(O)CN(CCCCCCC1=C(c2ccc(F)c(F)c2)CCCc2cc(O)ccc21)CCCS(=O)(=O)CCCC(F)(F)C(F)(F)F [Example 29, 8-(3,4-Difluorophenyl)-9-{6-[(2-hydroxy-2-methylpropyl){3-[(4,4,5,5,5-pentafluoropentyl)sulphonyl]propyl}amino]hexyl}-6,7-dihydro-5H-benzo[7]annulen-3-ol]
0.007 | [2H]C([2H])([2H])N(CCCCCCC1=C(c2ccc(F)cc2)CCCc2cc(O)ccc21)CCCS(=O)(=O)CCCCC(F)(F)F [Example 139, 8-(4-Fluorophenyl)-9-{6-[(^2H3)methyl{3-[(5,5,5-trifluoropentyl)sulphonyl]propyl}amino]hexyl}-6,7-dihydro-5H-benzo[7]annulen-3-ol]
0.007 | O=S(=O)(CCCCC(F)(F)F)CCCNCCCCCCC1=C(c2ccc(F)cc2)CCCc2cc(O)ccc21 [Example 112, 8-(4-Fluorophenyl)-9-[6-({3-[(5,5,5-trifluoropentyl)sulphonyl]propyl}amino)hexyl]-6,7-dihydro-5H-benzo[7]annulen-3-ol]
